Data published in PubChem BioAssay (NCI).
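All cell lines were grown in 96-well plates and treated with compound for 48 hours. GI50 = concentration required for 50% inhibition of growth. TGI denotes the concentration required for complete inhibition of growth.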

Columns and labels:
Test in all cases: NCI-60 cell line screen, 48 h
[1] = system: CAKI-1 renal
[2] = system: OVCAR-3 ovarian
[3] = system: RXF 393 renal
[4] = system: KM12 colon
[5] = system: SK-OV-3 ovarian
[6] = system: ACHN renal
[7] = system: M19-MEL melanoma
[8] = system: HOP-92 NSCLC
[9] = system: HOP-62 NSCLC
[10] = system: IGROV1 ovarian
[11] = system: SW-620 colon
[12] = system: LXFL 529 NSCLC
[13] = system: SN12C renal
[14] = system: SK-MEL-2 melanoma
[15] = system: DLD-1 colon
[16] = system: HL-60(TB) leukemia
[17] = system: SK-MEL-28 melanoma
[18] = system: NCI-H460 lung
[19] = system: MALME-3M melanoma
[20] = system: K-562 leukemia
[21] = system: HOP-18 NSCLC
[22] = system: NCI-H226 lung
[23] = system: M14 melanoma
[24] = system: UACC-62 melanoma
[25] = system: HCT-116 colon
[26] = system: SNB-75 CNS
[27] = system: HT29 colon
[28] = system: CCRF-CEM leukemia
[29] = system: LOX IMVI melanoma
[30] = system: SF-268 CNS
[31] = system: SNB-19 CNS
[32] = system: TK-10 renal
[33] = system: OVCAR-5 ovarian
[34] = system: 786-0 renal
[35] = system: SF-295 CNS
[36] = system: MOLT-4 leukemia
[37] = system: OVCAR-8 ovarian
[38] = system: U251 CNS
[39] = system: SK-MEL-5 melanoma
[40] = system: DMS 273 small cell lung
[41] = system: HCT-15 colon
[42] = system: SF-539 CNS
[43] = system: XF 498 CNS
[44] = system: KM20L2 colon
[45] = system: UO-31 renal
[46] = system: SNB-78 CNS
[47] = system: A549 NSCLC
[48] = system: HCC-2998 colon
[49] = system: COLO 205 colon
[50] = system: RPMI-8226 leukemia
[51] = system: UACC-257 melanoma
[52] = system: SR leukemia
[53] = system: OVCAR-4 ovarian
[54] = system: EKVX NSCLC
[55] = system: NCI-H23 lung

SMILES: CCC[CH2][Sn]([Cl])([Cl])[CH2]CCC
- GI50 [1]: 0.295 µM
- TGI [1]: 1.44 µM
- GI50 [2]: 1.03 µM
- TGI [2]: 2.32 µM
- GI50 [3]: 0.232 µM
- TGI [3]: 0.49 µM
- GI50 [4]: 1.35 µM
- TGI [4]: 2.81 µM
- GI50 [5]: 1.67 µM
- TGI [5]: 3.08 µM
- GI50 [6]: 0.449 µM
- TGI [6]: 1.62 µM
- TGI [7]: 2.21 µM
- GI50 [8]: 1.15 µM
- TGI [8]: 2.64 µM
- GI50 [9]: 1.92 µM
- TGI [9]: 3.36 µM
- GI50 [10]: 1.04 µM
- TGI [10]: 1.62 µM
- GI50 [11]: 0.333 µM
- TGI [11]: 1.24 µM
- GI50 [12]: 0.138 µM
- TGI [12]: 0.474 µM
- GI50 [13]: 0.966 µM
- TGI [13]: 2.25 µM
- GI50 [14]: 0.495 µM
- TGI [14]: 1.54 µM
- GI50 [15]: 0.649 µM
- TGI [15]: 1.99 µM
- GI50 [16]: 0.275 µM
- TGI [16]: 1.02 µM
- GI50 [17]: 0.363 µM
- TGI [17]: 1.36 µM
- GI50 [18]: 1.75 µM
- TGI [18]: 3.72 µM
- GI50 [19]: 0.371 µM
- TGI [19]: 1.44 µM
- GI50 [20]: 0.233 µM
- TGI [20]: 1.24 µM
- GI50 [21]: 1.29 µM
- TGI [21]: 2.56 µM
- GI50 [22]: 1.82 µM
- TGI [22]: 5.01 µM
- GI50 [23]: 1.14 µM
- TGI [23]: 2.78 µM
- GI50 [24]: 0.429 µM
- TGI [24]: 1.63 µM
- GI50 [25]: 1.17 µM
- TGI [25]: 2.61 µM
- GI50 [26]: 0.894 µM
- TGI [26]: 2.28 µM
- GI50 [27]: 1.44 µM
- TGI [27]: 2.81 µM
- GI50 [28]: 0.221 µM
- TGI [28]: 0.781 µM
- GI50 [29]: 0.464 µM
- TGI [29]: 1.84 µM
- GI50 [30]: 0.457 µM
- TGI [30]: 1.77 µM
- GI50 [31]: 0.948 µM
- TGI [31]: 2.17 µM
- GI50 [32]: 0.569 µM
- TGI [32]: 1.77 µM
- GI50 [33]: 1.51 µM
- TGI [33]: 2.89 µM
- GI50 [34]: 0.714 µM
- TGI [34]: 2.04 µM
- GI50 [35]: 1.53 µM
- TGI [35]: 2.92 µM
- GI50 [36]: 0.356 µM
- TGI [36]: 2.53 µM
- GI50 [37]: 1.88 µM
- TGI [37]: 7.02 µM
- GI50 [38]: 0.472 µM
- TGI [38]: 1.62 µM
- GI50 [39]: 0.509 µM
- TGI [39]: 1.55 µM
- GI50 [40]: 1.29 µM
- TGI [40]: 3.73 µM
- GI50 [41]: 0.738 µM
- TGI [41]: 2.24 µM
- GI50 [42]: 0.87 µM
- TGI [42]: 2.19 µM
- GI50 [43]: 0.534 µM
- TGI [43]: 1.44 µM
- GI50 [44]: 1.49 µM
- TGI [44]: 3.01 µM
- GI50 [45]: 1.39 µM
- TGI [45]: 2.69 µM
- GI50 [46]: 0.333 µM
- TGI [46]: 1.43 µM
- GI50 [47]: 2.65 µM
- TGI [47]: 8.25 µM
- GI50 [48]: 1.1 µM
- TGI [48]: 2.32 µM
- GI50 [49]: 1.15 µM
- TGI [49]: 3.2 µM
- GI50 [50]: 0.198 µM
- TGI [50]: 0.723 µM
- GI50 [51]: 0.854 µM
- TGI [51]: 2.26 µM
- GI50 [52]: 0.296 µM
- TGI [52]: 1.21 µM
- GI50 [53]: 1.4 µM
- TGI [53]: 2.78 µM
- GI50 [54]: 0.848 µM
- TGI [54]: 2.25 µM
- GI50 [55]: 0.62 µM
- TGI [55]: 2.21 µM
